According to ChEMBL document CHEMBL5331103, “Discovery of novel 2-hydroxyl-4-benzyloxybenzyl aniline derivatives as potential multifunctional agents for the treatment of Parkinson's disease” (Eur J Med Chem, 2023):
The source made the active and inactive calls. No cut-off for these calls is given here.

What was measured:
[1] = biological target: T1, Amine oxidase [flavin-containing] B (Homo sapiens, UniProt P27338)
T1 sequence (P27338 whole entry): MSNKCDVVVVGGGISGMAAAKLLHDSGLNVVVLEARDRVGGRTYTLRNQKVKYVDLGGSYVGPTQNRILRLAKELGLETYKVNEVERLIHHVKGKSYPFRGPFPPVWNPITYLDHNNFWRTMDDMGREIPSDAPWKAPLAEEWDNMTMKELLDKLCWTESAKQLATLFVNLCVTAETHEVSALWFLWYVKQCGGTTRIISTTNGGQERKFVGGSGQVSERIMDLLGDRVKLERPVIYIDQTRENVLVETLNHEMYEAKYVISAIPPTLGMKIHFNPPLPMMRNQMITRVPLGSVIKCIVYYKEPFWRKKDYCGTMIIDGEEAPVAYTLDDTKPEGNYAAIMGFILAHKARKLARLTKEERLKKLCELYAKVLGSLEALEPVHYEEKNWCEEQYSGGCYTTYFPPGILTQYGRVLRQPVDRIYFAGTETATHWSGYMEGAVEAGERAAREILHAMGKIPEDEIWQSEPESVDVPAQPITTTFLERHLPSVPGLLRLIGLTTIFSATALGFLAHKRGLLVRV
Description: Inhibition of MAO-B (unknown origin) using kynuramine as substrate preincubated for 30 mins followed by substrate addition and measured after 30 mins by fluorescence based analysis

[2] = biological target: T2, Amine oxidase [flavin-containing] A (Homo sapiens, UniProt P21397); test: Inhibition of MAO-A (unknown origin) using kynuramine as substrate at 10 uM preincubated for 30 mins followed by substrate addition and measured after 30 mins by fluorescence based analysis relative to control; details: 0.5 h, time 60 min
T2 sequence (P21397 whole entry): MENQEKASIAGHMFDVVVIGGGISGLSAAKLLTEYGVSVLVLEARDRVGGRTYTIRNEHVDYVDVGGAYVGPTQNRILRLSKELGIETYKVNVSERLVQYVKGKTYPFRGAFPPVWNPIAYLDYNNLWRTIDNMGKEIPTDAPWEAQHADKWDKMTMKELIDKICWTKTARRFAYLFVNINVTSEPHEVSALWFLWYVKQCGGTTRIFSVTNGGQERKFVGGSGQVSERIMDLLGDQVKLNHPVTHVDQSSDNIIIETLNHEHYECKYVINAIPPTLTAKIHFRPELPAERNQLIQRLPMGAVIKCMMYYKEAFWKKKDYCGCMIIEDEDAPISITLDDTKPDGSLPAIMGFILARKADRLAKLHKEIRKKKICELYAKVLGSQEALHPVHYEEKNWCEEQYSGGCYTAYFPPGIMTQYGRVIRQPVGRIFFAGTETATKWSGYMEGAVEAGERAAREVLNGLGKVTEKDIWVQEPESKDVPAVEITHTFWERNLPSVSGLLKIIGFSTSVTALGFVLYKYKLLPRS

[3] = tested on: PC-12; test: Neuroprotective activity against H2O2-induced cell damage in rat PC-12 cells assessed as increase in cell viability at 50 uM preincubated for 2 hrs followed by H2O2 addition and measured after 24 hrs by MTT assay (reference value: 50.3%); type: functional; details: time 26 hrs
[4] = tested on: BV-2; test: Inhibition of LPS-induced NFkappaB activation in mouse BV-2 cells assessed as reduction in IkappaBalpha phosphorylation at 1 to 10 uM preincubated for 30 mins followed by LPS-stimulation and measured after 16 hrs by Western blot analysis; type: cell-based; details: dose 1-10 µM, time 16.5 hrs
[5] = tested on: PC-12; test: Neuroprotective activity against H2O2-induced cell damage in rat PC-12 cells assessed as increase in cell viability at 10 uM preincubated for 2 hrs followed by H2O2 addition and measured after 24 hrs by MTT assay (reference value: 50.3%); type: functional; details: time 26 hrs
[6] = tested on: BV-2; test: Inhibition of LPS-induced ROS production in mouse BV-2 cells at 10 uM preincubated for 30 mins followed by LPS-stimulation and measured after 30 mins by DCFH-DA based fluorescence microplate reader analysis relative to control; type: functional; details: BV-2, 1 h, time 60 min
[7] = tested on: Mus musculus; test: Anti-parkinson's disease activity in MPTP-induced C57BL/6C mouse model assessed as reduction in beam walking test time at 53.5 mg/kg, IG preadministered with MPTP for 5 days followed by compound administration for 3 weeks and measured 1 hrs post last dose by beam-walking test; type: functional, organism-based
[8] = tested on: BV-2; test: Anti-neuroinflammatory activity in mouse BV-2 cells assessed as inhibition of LPS-induced NO production at 10 uM preincubated for 30 mins followed by LPS stimulation and measured after 24 hrs by Griess reagent based assay relative to control; type: functional; details: time 24.5 hrs
[9] = tested on: Mus musculus; test: In vivo inhibition of MAO-B in MPTP-induced C57BL/6C parkinson's mouse model assessed as increase in DA level in corpus striatum at 53.5 mg/kg, IG preadministered with MPTP for 5 days followed by compound administration for 3 weeks and measured 1 hrs post last dose by HPLC-ECD method; type: functional, organism-based
[10] = Metal chelating activity assessed as Fe2+-compound complex formation by measuring increase in absorbance incubated for 2 hrs in the presence of FeSO4 at 30 to 900 uM by UV-Vis spectra analysis
[11] = Metal chelating activity assessed as Al3+-compound complex formation by measuring increase in absorbance incubated for 2 hrs in the presence of AlCl3 by UV-Vis spectra analysis
[12] = tested on: Mus musculus; test: Anti-parkinson's disease activity in MPTP-induced C57BL/6C mouse model assessed as reduction in total time required to reach the bottom of pole at 53.5 mg/kg, IG preadministered with MPTP for 5 days followed by compound administration for 3 weeks and measured 1 hrs post last dose by pole test; type: functional, organism-based
[13] = Metal chelating activity assessed as Fe2+-compound complex formation by measuring red shift incubated for 2 hrs in the presence of FeSO4 by UV-Vis spectra analysis
[14] = tested on: BV-2; test: Anti-neuroinflammatory activity in mouse BV-2 cells assessed as inhibition of LPS-induced NO production at 2.5 uM preincubated for 30 mins followed by LPS stimulation and measured after 24 hrs by Griess reagent based assay relative to control; type: functional; details: time 24.5 hrs
[15] = tested on: Mus musculus; test: Anti-parkinson's disease activity in MPTP-induced C57BL/6C mouse model assessed as decrease in MDA level in corpus striatum at 53.5 mg/kg, IG preadministered with MPTP for 5 days followed by compound administration for 3 weeks and measured 1 hrs post last dose by HPLC-ECD method; type: functional, organism-based
[16] = Metal chelating activity assessed as Cu2+-compound complex formation by measuring increase in absorbance incubated for 2 hrs in the presence of CuCl2 by UV-Vis spectra analysis
[17] = biological target: T1, Amine oxidase [flavin-containing] B; test: Competitive inhibition of MAO-B (unknown origin) using kynuramine as substrate assessed as increase in Km at 0.007 to 0.028 uM by Lineweaver-Burk plot analysis; details: dose 0.007-0.028 µM
[18] = biological target: T1, Amine oxidase [flavin-containing] B; test: Competitive inhibition of MAO-B (unknown origin) using kynuramine as substrate assessed as inhibition constant by Lineweaver-Burk plot analysis
[19] = tested on: PC-12; test: Neuroprotective activity against H2O2-induced cell damage in rat PC-12 cells assessed as increase in cell viability at 2.5 uM preincubated for 2 hrs followed by H2O2 addition and measured after 24 hrs by MTT assay (reference value: 50.3%); type: functional; details: time 26 hrs
[20] = tested on: Mus musculus; test: Anti-parkinson's disease activity in MPTP-induced C57BL/6C mouse model assessed as increase in traction test score at 53.5 mg/kg, IG preadministered with MPTP for 5 days followed by compound administration for 3 weeks and measured 1 hrs post last dose by traction test; type: functional, organism-based
[21] = tested on: Mus musculus; test: Anti-parkinson's disease activity in MPTP-induced C57BL/6C mouse model assessed as reduction in time required to turn the head to 180 degree at 53.5 mg/kg, IG preadministered with MPTP for 5 days followed by compound administration for 3 weeks and measured 1 hrs post last dose by pole test; type: functional, organism-based
[22] = biological target: T1, Amine oxidase [flavin-containing] B; test: Competitive inhibition of MAO-B (unknown origin) using kynuramine as substrate assessed as […] at 0.007 to 0.028 uM by Lineweaver-Burk plot analysis; details: dose 0.007-0.028 µM
[23] = tested on: BV-2; test: Anti-neuroinflammatory activity in mouse BV-2 cells assessed as inhibition of LPS-induced TNF-alpha production at 10 uM preincubated for 30 mins followed by LPS stimulation and measured after 24 hrs by ELISA analysis relative to control; type: functional; details: time 24.5 hrs
[24] = Metal chelating activity assessed as Zn2+-compound complex formation by measuring increase in absorbance incubated for 2 hrs in the presence of ZnCl2 by UV-Vis spectra analysis
[25] = tested on: BV-2; test: Inhibition of LPS-induced NFkappaB activation in mouse BV-2 cells assessed as inhibition of p65 translocation to nucleus at 1 to 10 uM preincubated for 30 mins followed by LPS-stimulation and measured after 16 hrs by Western blot analysis; type: cell-based; details: dose 1-10 µM, time 16.5 hrs
[26] = tested on: PC-12; test: Cytotoxicity against rat PC-12 cells assessed as reduction in cell viability upto 50 uM incubated for 2 hrs by MTT assay; type: toxicity, cell-based; details: pc-12, 2 h
[27] = Metal chelating activity assessed as Fe3+-compound complex formation by measuring increase in absorbance incubated for 2 hrs in the presence of FeCl3 by UV-Vis spectra analysis
[28] = tested on: BV-2; test: Anti-neuroinflammatory activity in mouse BV-2 cells assessed as inhibition of LPS-induced TNF-alpha production preincubated for 30 mins followed by LPS stimulation and measured after 24 hrs by ELISA analysis; type: functional, cell-based; details: dose 0.5-10 µM, time 24.5 hrs
[29] = Permeability of the compound in porcine brain incubated for 18 hrs by PAMPA-BBB assay; type: ADME, Sus scrofa; details: pig, read-out: permeability
[30] = tested on: BV-2; test: Cytotoxicity against mouse BV-2 cells assessed as reduction in cell viability upto 10 uM incubated for 30 mins by MTT assay; type: toxicity, cell-based; details: bv-2, 0.5 h
[31] = Metal chelating activity assessed as Fe2+-compound complex formation by measuring increase in absorbance incubated for 2 hrs in the presence of FeSO4 by UV-Vis spectra analysis
[32] = tested on: BV-2; test: Inhibition of LPS-induced ROS production in mouse BV-2 cells at 2.5 uM preincubated for 30 mins followed by LPS-stimulation and measured after 30 mins by DCFH-DA based fluorescence microplate reader analysis relative to control; type: functional; details: BV-2, 1 h, time 60 min
[33] = tested on: BV-2; test: Anti-neuroinflammatory activity in mouse BV-2 cells assessed as inhibition of LPS-induced NO production at 0.5 uM preincubated for 30 mins followed by LPS stimulation and measured after 24 hrs by Griess reagent based assay relative to control; type: functional; details: time 24.5 hrs
[34] = organism: Mus musculus; details: C57BL/6C, dose 50.0 mg/kg, route ig, time 3.0 weeks

For `Oc1cc(OCc2ccc(F)c(Cl)c2)ccc1CNc1ccccc1`, the IC50 [1] was 33 nM and the inhibition at 10 µM [2] was 49.2%.

`Oc1cc(OCc2cccc(F)c2)ccc1CNc1ccccc1` showed an IC50 [1] of 95 nM and an inhibition at 10 µM [2] of 11.8%.

For `Oc1cc(OCc2ccc(Cl)c(Cl)c2)ccc1CNc1ccccc1`, the IC50 [1] was 49 nM and the inhibition at 10 µM [2] was 52.5%.

With `CC(C)(C)c1ccc(COc2ccc(CNc3ccccc3)c(O)c2)cc1` the IC50 [1] was 435 nM and the inhibition at 10 µM [2] was < 5%.

Molecule `Oc1cc(OCc2cccc(C(F)(F)F)c2)ccc1CNc1ccccc1` has an IC50 [1] of 297 nM and an inhibition at 10 µM [2] of 9.25%.

With `Oc1cc(OCc2ccc(F)cc2)ccc1CNc1ccccc1` the Activity [3] was 77.2%, the inhibition [4] was “Active” and the Activity [5] was 69.6%. The inhibition at 10 µM [6] was 99%, the Activity [7] was “Active” and the inhibition at 10 µM [8] was 76.1%. For the same molecule, the inhibition [9] was “Active”, the Activity [10] was “Active” and the Activity [11] was “Active”. The Activity [12] was “Active”, the Activity [13] was “Active” and the inhibition at 2.5 µM [14] was 28%. The Activity [15] was “Active”, the Activity [16] was “Active” and the “inhibition (INH)” value [17] was “Active”. It also gave a Ki [18] of 18 nM, an IC50 [1] of 14 nM and an Activity [19] of 59.8%. The Activity [20] was “Active”, the Activity [21] was “Active” and the “inhibition (INH)” value [22] was “Active”. For the same molecule, the inhibition at 10 µM [23] was 63.9%, the Activity [24] was “Active” and the inhibition [25] was “Active”. The Activity [26] was “Non-Toxic”, the Activity [27] was “Active” and the Activity [28] was “Dose-Dependent Effect”. The Papp at 18 h [29] was 8.62 ×10⁻⁶ cm/s, the inhibition at 10 µM [2] was 43.7% and the Activity [30] was “Non-Toxic”. The Activity [31] was “Active”, the inhibition at 2.5 µM [32] was 21.2% and the inhibition at 0.5 µM [33] was 13.5%.

For `C[C@H](NCc1ccc(OCc2cccc(F)c2)cc1)C(N)=O` [SAFINAMIDE], the inhibition [34] was “Active” and the inhibition at 10 µM [2] was 25.7%.

For `Oc1cccc(NCc2ccc(OCc3ccc(F)cc3)cc2O)c1`, the IC50 [1] was 67 nM and the inhibition at 10 µM [2] was 35.5%.

For `Oc1cc(OCc2ccc(F)c(F)c2)ccc1CNc1ccccc1`, the IC50 [1] was 21 nM and the inhibition at 10 µM [2] was 48%.

`Oc1cc(OCc2ccccc2F)ccc1CNc1ccccc1` showed an IC50 [1] of 334 nM and an inhibition at 10 µM [2] of 8.34%.
